# Experimental data taken from PubChem BioAssay AID2060884 (Molecular Pharmacology Branch, DTP, NCI, 2025).
# pIC50: −log10 of the molar value. “And” between values parts separate entries of the source, which are not always exact repeats. Equal entries are not always repeated.
# System: NCI-H929 complex spheroids, viability % test/control
# Assay: Anticancer human tumor NCI-H929 cell line growth inhibition [RAS];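 further: compound exposure lasted seven days before viability was read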;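 on viability, T/C: 100% = DMSO vehicle control viability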
# Conditions: for viability, T/C: stronger effect = lower value
# Procedure, shortened: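 Tumour cells grown as complex spheroids with HUVEC endothelial cells and mesenchymal stem cells, treated with RAS pathway inhibitor combinations. Each agent spans half-log steps from near clinical Cmax, or 10 microM where Cmax is unknown.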
smiles,measurement,setting,value
CC1(C)CCC(Nc2ncc(C(F)(F)F)c(-c3c[nH]c4c(P(C)(C)=O)c(C#N)ccc34)n2)CN1 (stereo unspecified) + CCn1c(-c2cc(N3CCN(C)CC3)cnc2C(C)OC)c2c3cc(ccc31)-c1csc(n1)CC(NC(=O)C1CC1C)C(=O)N1CCCC(N1)C(=O)OCC(C)(C)C2,pIC50,"curve of first compound, second compound 0.000949 µM",8.65
same,pIC50,"curve of first compound, second compound 0.003 µM",8.60
same,pIC50,"curve of first compound, second compound 0.00949 µM",8.71
same,pIC50,"curve of first compound, second compound 0.03 µM",> 9.02
same,pIC50,"curve of first compound, second compound 0.0949 µM",> 9.02
same,pIC50,"curve of first compound, second compound 0.3 µM",> 9.02
same,"viability, T/C","second compound 0.000949 µM, first compound 0.000949 µM",116%
same,"viability, T/C","second compound 0.000949 µM, first compound 0.003 µM",26.9%
same,"viability, T/C","second compound 0.000949 µM, first compound 0.00949 µM",8.16%
same,"viability, T/C","second compound 0.000949 µM, first compound 0.03 µM",6.16%
same,"viability, T/C","second compound 0.000949 µM, first compound 0.0949 µM",4.71%
same,"viability, T/C","second compound 0.000949 µM, first compound 0.3 µM",3.65%
same,"viability, T/C","second compound 0.003 µM, first compound 0.000949 µM",112%
same,"viability, T/C","second compound 0.003 µM, first compound 0.003 µM",39.4%
same,"viability, T/C","second compound 0.003 µM, first compound 0.00949 µM",10.1%
same,"viability, T/C","second compound 0.003 µM, first compound 0.03 µM",7.4%
same,"viability, T/C","second compound 0.003 µM, first compound 0.0949 µM",5.4%
same,"viability, T/C","second compound 0.003 µM, first compound 0.3 µM",4.64%
same,"viability, T/C","second compound 0.00949 µM, first compound 0.000949 µM",91.8%
same,"viability, T/C","second compound 0.00949 µM, first compound 0.003 µM",24.4%
same,"viability, T/C","second compound 0.00949 µM, first compound 0.00949 µM",8.42%
same,"viability, T/C","second compound 0.00949 µM, first compound 0.03 µM",5.44%
same,"viability, T/C","second compound 0.00949 µM, first compound 0.0949 µM",5.01%
same,"viability, T/C","second compound 0.00949 µM, first compound 0.3 µM",4.22%
same,"viability, T/C","second compound 0.03 µM, first compound 0.000949 µM",16.8%
same,"viability, T/C","second compound 0.03 µM, first compound 0.003 µM",5.53%
same,"viability, T/C","second compound 0.03 µM, first compound 0.00949 µM",2.91%
same,"viability, T/C","second compound 0.03 µM, first compound 0.03 µM",2.43%
same,"viability, T/C","second compound 0.03 µM, first compound 0.0949 µM",1.95%
same,"viability, T/C","second compound 0.03 µM, first compound 0.3 µM",1.14%
same,"viability, T/C","second compound 0.0949 µM, first compound 0.000949 µM",2.94%
same,"viability, T/C","second compound 0.0949 µM, first compound 0.003 µM",1.38%
same,"viability, T/C","second compound 0.0949 µM, first compound 0.00949 µM",1.46%
same,"viability, T/C","second compound 0.0949 µM, first compound 0.03 µM",0.67%
same,"viability, T/C","second compound 0.0949 µM, first compound 0.0949 µM",0.66%
same,"viability, T/C","second compound 0.0949 µM, first compound 0.3 µM",0.53%
same,"viability, T/C","second compound 0.3 µM, first compound 0.000949 µM",1.65%
same,"viability, T/C","second compound 0.3 µM, first compound 0.003 µM",0.63%
same,"viability, T/C","second compound 0.3 µM, first compound 0.00949 µM",0.85%
same,"viability, T/C","second compound 0.3 µM, first compound 0.03 µM",1.47%
same,"viability, T/C","second compound 0.3 µM, first compound 0.0949 µM",0.57%
same,"viability, T/C","second compound 0.3 µM, first compound 0.3 µM",0.6%
C=CC(=O)Nc1cc(Nc2nccc(-c3cn(C)c4ccccc34)n2)c(OC)cc1N(C)CCN(C)C,"viability, T/C",compound 0.00316 µM,103% (2×) and 109% and 105%
same,"viability, T/C",compound 0.01 µM,99.4% [middle of 4 runs]
same,"viability, T/C",compound 0.0316 µM,107% [middle of 4 runs]
same,"viability, T/C",compound 0.1 µM,99% [middle of 4 runs]
same,"viability, T/C",compound 0.316 µM,105% [middle of 4 runs]
same,"viability, T/C",compound 1 µM,105% [middle of 4 runs]
same,pIC50,curve of compound,< 6.00
Cc1nc(N2CCC3(CC2)COC(C)C3N)c(CO)nc1Sc1ccnc(N)c1Cl (stereo unspecified) + C#Cc1c(F)ccc2cc(O)cc(-c3ncc4c(N5CC6CCC(C5)N6)nc(OCC56CCCN5CC(F)C6)nc4c3F)c12,pIC50,"curve of first compound, second compound 0.0316 µM",< 5.00
same,pIC50,"curve of first compound, second compound 0.1 µM",< 5.00
same,pIC50,"curve of first compound, second compound 0.316 µM",< 5.00
same,pIC50,"curve of first compound, second compound 1 µM",< 5.00
same,pIC50,"curve of first compound, second compound 3.16 µM",< 5.00
same,pIC50,"curve of first compound, second compound 10 µM",< 5.00
same,"viability, T/C","second compound 0.0316 µM, first compound 0.0316 µM",101%
same,"viability, T/C","second compound 0.0316 µM, first compound 0.1 µM",95.1%
same,"viability, T/C","second compound 0.0316 µM, first compound 0.316 µM",98%
same,"viability, T/C","second compound 0.0316 µM, first compound 1 µM",98.7%
same,"viability, T/C","second compound 0.0316 µM, first compound 3.16 µM",98.4%
same,"viability, T/C","second compound 0.0316 µM, first compound 10 µM",99.5%
same,"viability, T/C","second compound 0.1 µM, first compound 0.0316 µM",97.3%
same,"viability, T/C","second compound 0.1 µM, first compound 0.1 µM",97.6%
same,"viability, T/C","second compound 0.1 µM, first compound 0.316 µM",95.3%
same,"viability, T/C","second compound 0.1 µM, first compound 1 µM",99%
same,"viability, T/C","second compound 0.1 µM, first compound 3.16 µM",99%
same,"viability, T/C","second compound 0.1 µM, first compound 10 µM",107%
same,"viability, T/C","second compound 0.316 µM, first compound 0.0316 µM",96%
same,"viability, T/C","second compound 0.316 µM, first compound 0.1 µM",97.3%
same,"viability, T/C","second compound 0.316 µM, first compound 0.316 µM",99%
same,"viability, T/C","second compound 0.316 µM, first compound 1 µM",101%
same,"viability, T/C","second compound 0.316 µM, first compound 3.16 µM",101%
same,"viability, T/C","second compound 0.316 µM, first compound 10 µM",102%
same,"viability, T/C","second compound 1 µM, first compound 0.0316 µM",93.4%
same,"viability, T/C","second compound 1 µM, first compound 0.1 µM",102%
same,"viability, T/C","second compound 1 µM, first compound 0.316 µM",102%
same,"viability, T/C","second compound 1 µM, first compound 1 µM",100%
same,"viability, T/C","second compound 1 µM, first compound 3.16 µM",103%
same,"viability, T/C","second compound 1 µM, first compound 10 µM",103%
same,"viability, T/C","second compound 3.16 µM, first compound 0.0316 µM",103%
same,"viability, T/C","second compound 3.16 µM, first compound 0.1 µM",99.8%
same,"viability, T/C","second compound 3.16 µM, first compound 0.316 µM",99.5%
same,"viability, T/C","second compound 3.16 µM, first compound 1 µM",101%
same,"viability, T/C","second compound 3.16 µM, first compound 3.16 µM",102%
same,"viability, T/C","second compound 3.16 µM, first compound 10 µM",104%
same,"viability, T/C","second compound 10 µM, first compound 0.0316 µM",99.9%
same,"viability, T/C","second compound 10 µM, first compound 0.1 µM",104%
same,"viability, T/C","second compound 10 µM, first compound 0.316 µM",106%
same,"viability, T/C","second compound 10 µM, first compound 1 µM",103%
same,"viability, T/C","second compound 10 µM, first compound 3.16 µM",103%
same,"viability, T/C","second compound 10 µM, first compound 10 µM",85.6%
